Assay results as given in PMC11292009, “Mapping protein binding sites by photoreactive fragment pharmacophores” (Communications Chemistry, 2024).

Tests used:
Format in all cases: binding
myoglobin (Myo) = assay: Intact protein MS photoaffinity labeling screen, myoglobin; details: intact protein MS after 10 min irradiation
Outline: (§1)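 In a single-fragment-per-well plate, protein was exposed to fragment for 15 min before direct intact-mass analysis; labeled protein was identified by the corresponding mass increase.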

lysozyme (Lyo) = assay: Intact protein MS photoaffinity labeling screen, lysozyme; details: intact protein MS after 10 min irradiation
Outline: as §1

STAT5B-NTD [1] = tested on: T1, STAT5B-NTD; assay: Intact MS labeling screen, STAT5B-NTD conjugated with photocatalyst Ir-G2-PEG3-COOH (450 nm); details: 450 nm 10 min;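 note: 0.14 µL of 100 mM DMSO fragment stock added to the conjugate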
T1 construct: His-SUMO (N, cleaved yes); made in house; host or cells: E. coli BL21 RILP
Outline: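 Ir-G2-PEG3-COOH photocatalyst (10 eq) activated 30 min with EDC/NHS/BOP, then conjugated to STAT5B-NTD (7 µM) overnight at RT or 1 h at 37 °C in dark. PhP added, 1 h dark, then 450 nm irradiation 10 min at 4 °C; labeling read by intact LC-MS, positive ion mode, m/z 100–2000.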

[2] = tested on: carbonic anhydrase II (CA); assay: Intact protein MS photoaffinity labeling screen, carbonic anhydrase; details: intact protein MS after 10 min irradiation
Outline: as §1

STAT5B-NTD [3] = tested on: T1, STAT5B-NTD; assay: Intact MS photoaffinity labeling screen, STAT5B-NTD (365 nm, UHPLC-MS); details: for STAT5B-NTD (experimental hit status): PhP library sheet "PhP", binary flag printed as 0 or 1, key not given; for MS labeling percentage, STAT5B: STAT5B-NTD, 365 nm 10 min, no photocatalyst;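 for MS labeling percentage, STAT5B: 0.17 µL of 100 mM DMSO fragment stock added to the protein sample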
Outline: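 Intact-protein labeling detected by UHPLC-MS in positive ion mode over m/z 100–2000. Samples were first photo-crosslinked at 365 nm for 10 min at 4 °C. Before irradiation, 7 µM STAT5B in PBS pH 7.4 was pre-incubated with probe for 1 h in the dark at room temperature.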

BRD4-BD1 = tested on: T2, BRD4-BD1; assay: Intact MS photoaffinity labeling screen, BRD4-BD1 (302 nm, LCMS-TOF); details: for BRD4-BD1 (experimental hit status): PhP library sheet "PhP", binary flag printed as 0 or 1, key not given; for MS labeling percentage, BRD4: BRD4-BD1, 302 nm 10 min
T2 construct: screened the PhP library against the first bromodomain of BRD4 (BRD4-BD1); purchased GSK/GenScript
Outline: (§2)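 Labeling detected as mass additions in deconvoluted intact-protein LCMS-TOF spectra. Protein at 1 μM in PBS was first mixed with one fragment per well on ice for 15 min, followed by 10 min UV exposure at 302 nm.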

KRas^G12D = tested on: T3, KRas^G12D; assay: Intact MS photoaffinity labeling screen, KRas G12D (302 nm, LCMS-TOF); details: for MS labeling percentage, KRas: KRas G12D, 302 nm 10 min; for KRAS-G12D (experimental hit status): PhP library sheet "PhP", binary flag printed as 0 or 1, key not given
T3 construct: purchased GSK/GenScript
Outline: as §2

Row | SMILES | MS labeling percentage, Myo (myoglobin (Myo)) [%] | MS labeling percentage, Lyo (lysozyme (Lyo)) [%] | MS labeling percentage, STAT5B+photocat (STAT5B-NTD [1]) [%] | MS labeling percentage, CA [2] [%] | STAT5B-NTD (experimental hit status) (STAT5B-NTD [3]) | MS labeling percentage, STAT5B (STAT5B-NTD [3]) [%] | BRD4-BD1 (experimental hit status) (BRD4-BD1) | MS labeling percentage, KRas (KRas^G12D) [%] | KRAS-G12D (experimental hit status) (KRas^G12D) | MS labeling percentage, BRD4 (BRD4-BD1) [%]
1 | CC1(CCC(=O)N[C@@H](Cc2cccc(F)c2)CN2C(=O)c3ccccc3C2=O)N=N1 [PhP079, Fc(c1)cccc1C[C@H](NC(=O)CCC2(C)N=N2)CN(C3=O)C(=O)c(c34)cccc4] | 0.4 | 0.3 | 1.2 | 0.5 | 0 | 0 | 0 | 0.5 | 0 | 
2 | CC1(CCC(=O)NCCc2c[nH]c3ccc(OCc4ccccc4)cc23)N=N1 [PhP081, N1=NC1(C)CCC(=O)NCCc(c[nH]2)c(c23)cc(cc3)OCc4ccccc4] | 0.3 | 2.8 | 4 | 0 | 0 | 1 | 0 | 0.5 | 0 | 0.5
3 | CC1(CCC(=O)NCc2nnc3n2CCC3)N=N1 [PhP083, N1=NC1(C)CCC(=O)NCc(nn2)n(c23)CCC3] | 0.1 | 0 | 0.7 | 0.4 | 0 | 1 | 0 | 0.2 | 0 | 0.3
4 | CC1(CCC(=O)NCCNC(=O)c2ccncc2)N=N1 [PhP084, N1=NC1(C)CCC(=O)NCCNC(=O)c2ccncc2] | 0.4 | 0 | 0.7 | 1.6 | 0 | 0 | 0 | 0.3 | 0 | 0.9
5 | CC1(CCC(=O)NC2CCc3[nH]cnc3C2)N=N1 (centres unmarked) [PhP085, N1=NC1(C)CCC(=O)NC(CC2)Cc(c23)nc[nH]3] | 0.1 | 0 | 1.2 | 0.4 | 0 | 1 | 0 | 0.3 | 0 | 0.3
6 | CC1(CCC(=O)NC(COCc2ccccc2)C(=O)OCc2ccccc2)N=N1 (centres unmarked) [PhP086, c1ccccc1COC(=O)C(NC(=O)CCC2(C)N=N2)COCc3ccccc3] | 0.2 | 0 | 4.6 | 0.4 | 0 | 0 | 0 | 0.3 | 0 | 0.2
7 | CC1(CCC(=O)Nc2ccc3oc(CN4CCCC4)nc3c2)N=N1 [PhP089, N1=NC1(C)CCC(=O)Nc2ccc3oc(CN4CCCC4)nc3c2] | 0.1 | 0 | 1 | 0.4 | 0 | 1 | 0 | 0 | 0 | 0.2
8 | Cc1nnc(C(C)NC(=O)CCC2(C)N=N2)[nH]1 (centres unmarked) [PhP090, Cc([nH]1)nnc1C(C)NC(=O)CCC2(C)N=N2] | 0.2 | 0 | 0.5 | 0.5 | 0 | 0 | 0 | 0.1 | 0 | 0.3
9 | Cn1cnc(CCNC(=O)CCC2(C)N=N2)c1 [PhP091, Cn1cnc(c1)CCNC(=O)CCC2(C)N=N2] | 0.1 | 0 | 0.3 | 0.7 | 0 | 0 | 0 | 0.2 | 0 | 0.2
